25 molecules from US9273057B2 (Bristol-Myers Squibb Company, priority 2012, dated 2016) can be followed below.

Where a name gives a salt, the structure may show the parent alone.

The target of this test is CK2A1 (CK2α/β) (Homo sapiens, UniProt P68400). In words: CK2 kinase assay, CK2A1 (CK2α/β). The test is classed as biochemical. Particulars: Table A; read-out: CK2A1 (CK2α/β) (IC50).
CK2A1 (CK2α/β), sequence (P68400 whole entry, species assumed): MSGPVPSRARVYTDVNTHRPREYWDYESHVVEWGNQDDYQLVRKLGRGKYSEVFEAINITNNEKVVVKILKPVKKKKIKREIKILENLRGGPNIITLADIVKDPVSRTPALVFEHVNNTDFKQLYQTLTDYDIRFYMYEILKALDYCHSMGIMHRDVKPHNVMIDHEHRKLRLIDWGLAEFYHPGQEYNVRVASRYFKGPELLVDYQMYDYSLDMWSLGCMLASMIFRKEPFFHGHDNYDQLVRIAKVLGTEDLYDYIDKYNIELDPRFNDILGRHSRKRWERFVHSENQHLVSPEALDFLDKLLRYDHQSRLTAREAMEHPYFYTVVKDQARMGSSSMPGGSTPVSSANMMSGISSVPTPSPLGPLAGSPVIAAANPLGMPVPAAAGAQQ
CK2A1 (CK2α/β), sequence (P67870 whole entry partner, species assumed): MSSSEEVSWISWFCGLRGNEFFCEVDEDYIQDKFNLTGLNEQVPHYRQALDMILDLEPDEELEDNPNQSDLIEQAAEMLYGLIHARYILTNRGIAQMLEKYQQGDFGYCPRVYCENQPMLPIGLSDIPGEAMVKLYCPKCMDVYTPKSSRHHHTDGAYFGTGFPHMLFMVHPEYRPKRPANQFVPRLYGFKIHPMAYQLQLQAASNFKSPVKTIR
For `CC1(C(=O)N2CCN(c3cc(C(F)F)cc(Nc4nc(NC5CC5)c5ncc(C#N)n5n4)c3Cl)CC2)COC1` [Example 273, 2-((2-chloro-5-(difluoromethyl)-3-(4-((3-methyl-3-oxetanyl)carbonyl)-1-piperazinyl)phenyl)amino)-4-(cyclopropylamino)imidazo[2,1-f][1,2,4]triazine-7-carbonitrile], the IC50 came out at 2.11 nM.
As for `N#Cc1cc(Nc2nc(NC3CC3)c3ncc(C#N)n3n2)c(Cl)c(C2CCN(C(=O)CC(F)(F)F)CC2)c1` [Example 237, 2-((2-chloro-5-cyano-3-(1-(3,3,3-trifIuoropropanoyl)-4-piperidinyl)phenyl)amino)-4-(cyclopropylamino)imidazo[2,1-f][1,2,4]triazine-7-carbonitrile], the IC50 came out at 0.41 nM.
`N#Cc1cc(Nc2nc(NC3CC3)c3ncc(C#N)n3n2)c(Cl)c(N2CCN(CC3CCCCO3)CC2)c1` (stereo not shown) [Example 609, 2-({2-chloro-5-cyano-3-[4-(oxan-2-ylmethyl)piperazin-1-yl]phenyl}amino)-4-(cyclopropylamino)imidazo [2,1-f][1,2,4]triazine-7-carbonitrile]: the IC50 was found to be 1.39 nM.
To `N#Cc1cc(Nc2nc(NC3CC3)c3ncc(C#N)n3n2)c(Cl)c(N2CCN(C(=O)CCCn3ccnc3)CC2)c1` [Example 96, 2-((2-chloro-5-cyano-3-(4-(4-(1H-imidazol-1-yl)butanoyl)-1-piperazinyl)phenyl)amino)-4-(cyclopropylamino) imidazo[2,1-f][1,2,4] triazine-7-carbonilrile] belongs 0.63 nM; to `CC(C)(O)C(=O)N1CC(N2CCN(c3cc(C#N)cc(Nc4nc(NC5CC5)c5ncc(C#N)n5n4)c3Cl)CC2)C1` [Example 484, 2-[(2-chloro-5-cyano-3-{4-[1-(2-hydroxy-2-methylpropanoyl)azetidin-3-yl]piperazin-1-yl}phenyl)amino]-4-(cyclopropylamino)imidazo[2,1-f][1,2,4]triazine-7-carbonitrile], 0.81 nM.
As for `N#Cc1cc(Nc2nc(NC3CC3)c3ncc(C#N)n3n2)c(Cl)c(C(F)(F)CO)c1` [Example 737, 2-((2-chloro-5-cyano-3-(1,1-difluoro-2-hydroxyethyl)phenyl)amino)-4-(cyclopropylamino)imidazo[2,1-f][1,2,4]triazine-7-carbonitrile], the figure is 0.38 nM; as for `CCNc1nc(Nc2cc(C#N)cc(N3CC[C@@H](NC(=O)OC)[C@H](OC(=O)[C@@H](NC(=O)[C@@H](N)CCCCN)C(C)C)C3)c2Cl)nn2c(C#N)cnc12` [Example 822, (S)-(3R,4R)-1-(2-chloro-5-cyano-3-((7-cyano-4-(ethylamino)imidazo[2,1-f][1,2,4]triazin-2-yl)amino)phenyl)-4-((methoxycarbonyl)amino)piperidin-3-yl 2-((S)-2,6-diaminohexanamido)-3-methylbutanoate dihydrochloride], 1.74 nM; as for `CCNc1nc(Nc2ccc3c(c2)c(C#N)cn3C2CCN(C3CN(C[C@@H](C)O)C3)CC2)nn2c(C#N)cnc12` [Example 833, (R)-2-((3-cyano-1-(1-(1-(2-hydroxypropyl)azetidin-3-yl)piperidin-4-yl)-1H-indol-5-yl)amino)-4-(ethylamino)imidazo[2,1-f][1,2,4]triazine-7-carbonitrile], 1.81 nM.
As for `C[C@@H]1CC(CN2CCN(c3cc(C#N)cc(Nc4nc(NC5CC5)c5ncc(C#N)n5n4)c3Cl)CC2)O1` (stereo partly drawn) [Example 528, 2-((2-chloro-5-cyano-3-(4-(((4R)-4-methyloxetan-2-yl)methyl)piperazin-1-yl)phenyl)amino)-4-(cyclopropylamino)imidazo[2,1-f][1,2,4]triazine-7-carbonitrile], the figure is 0.4 nM; as for `CC(=O)N1CCN(c2cc(C#N)cc(Nc3nc(NC4CC4)c4ncc(C#N)n4n3)c2Cl)CC1` [Example 85, 2-((3-(4-acetyl-1-piperazinyl)-2-chloro-5-cyanophenyl)amino)-4-(cyclopropylamino) imidazo[2,1-fl][1,2,4] triazine-7-carbonitrile], 0.57 nM.
With `CCNc1nc(Nc2cc(C#N)cc(N3CC[C@@H](NC(=O)OC)[C@@H](N(C)C(C)C(N)=O)C3)c2Cl)nn2c(C#N)cnc12` (stereo in doubt) [Example 769, methyl N-[(3S,4R)-3-{[(1S)-1-carbamoylethyl](methyl)amino}-1-(2-chloro-5-cyano-3-{[7-cyano-4-(ethylamino)imidazo[2,1-f][1,2,4]triazin-2-yl]amino}phenyl)piperidin-4-yl]carbamate], the IC50 came to 3 nM.
Regarding `COC(=O)Nc1cc(Nc2nc(NC3CC3)c3ncc(C#N)n3n2)c(Cl)c(C2CCN(C)CC2)c1` [Example 397, Methyl-4-chloro-3-(7-cyano-4-(cyclopropylamino)imidazo[1,2-f][1,2,4]triazin-2-ylamino)-5-(1-methylpiperidin-4-yl)phenylcarbamate], the IC50 came to 1.8 nM.
To `CC(=O)N[C@H]1CCN(Cc2cc(C#N)cc(Nc3nc(NC4CC4)c4ncc(C#N)n4n3)c2Cl)C1` [Example 473, N-[(3S)-1-[(2-chloro-5-cyano-3-{[7-cyano-4-(cyclopropylamino)imidazo[2,1-f][1,2,4]triazin-2-yl]amino}phenyl)methyl]pyrrolidin-3-yl]acetamide] belongs 0.56 nM; to `N#Cc1cc(Nc2nc(NC3CC3)c3ncc(C#N)n3n2)c(Cl)c(N2CCN(C3CN(C(=O)C4(O)CC4)C3)CC2)c1` [Example 481, 2-[(2-chloro-5-cyano-3-{4-[1-(1-hydroxycyclopropane-carbonyl)azetidin-3-yl]piperazin-1-yl}phenyl)amino]-4-(cyclopropylamino)imidazo[2,1-f][1,2,4]triazine-7-carbonitrile], 0.93 nM.
As for `CC(C)OC(=O)N1CC(N2CCN(c3cc(C#N)cc(Nc4nc(NC5CC5)c5ncc(C#N)n5n4)c3Cl)CC2)C1` [Example 518, propan-2-yl 3-[4-(2-chloro-5-cyano-3-{[7-cyano-4-(cyclopropylamino)imidazo[2,1-f][1,2,4]triazin-2-yl]amino}phenyl)piperazin-1-yl]azetidine-1-carboxylate], the figure is 10.3 nM; as for `CN(C)C(=O)C1CN(c2cc(C#N)cc(Nc3nc(NC4CC4)c4ncc(C#N)n4n3)c2Cl)CCN1CC(F)F` (stereo not shown) [Example 565, 4-(2-chloro-5-cyano-3-((7-cyano-4-(cyclopropylamino)imidazo[2,1-f][1,2,4]triazin-2-yl)amino)phenyl)-1-(2,2-difluoroethyl)-N,N-dimethylpiperazine-2-carboxamide], 180 nM; as for `COC(=O)N[C@H]1CCN(c2cc(C#N)cc(Nc3nc(NC4CC4)c4ncc(C#N)n4n3)c2Cl)C[C@H]1N(C)CC#N` [Example 766, methyl N-[(3R,4S)-1-(2-chloro-5-cyano-3-{[7-cyano-4-(cyclopropylamino)imidazo [2,1-f][1,2,4]triazin-2-yl]amino}phenyl)-3-[(cyanomethyl)(methyl)amino]piperidin-4-yl]carbamate], 6 nM.
As for `COC(=O)N[C@H]1CCN(c2cc(C#N)cc(Nc3nc(NC4CC4)c4ncc(C#N)n4n3)c2Cl)C[C@@H]1OC(=O)/C=C/C(=O)O` [Example 198, (2E)-4-(((3S,4S)-1-(2-chloro-5-cyano-3-((7-cyano-4-(cyclopropylamino)imidazo[2,1-f][1,2,4]triazin-2-yl)amino)phenyl)-4-((methoxycarbonyl)amino)-3-piperidinyl)oxy)-4-oxo-2-butenoic acid], the figure is 0.65 nM; as for `COC(=O)N[C@H]1CCN(c2cc(C#N)cc(Nc3nc(NC4CC4)c4ncc(C#N)n4n3)c2Cl)CC1NCC(C)(C)O` (stereo in doubt) [Example 755, methyl N-[(3S,4S)-1-(2-chloro-5-cyano-3-{[7-cyano-4-(cyclopropylamino)imidazo [2,1-f][1,2,4]triazin-2-yl]amino}phenyl)-3-[(2-hydroxy-2-methylpropyl)amino]piperidin-4-yl]carbamate], 2.7 nM; as for `CN1CC(N2CCN(c3cc(C#N)cc(Nc4nc(NC5CC5)c5ncc(C#N)n5n4)c3Cl)CC2)C1` [Example 72, 2-((2-chloro-5-cyano-3-(4-(1-methyl-3-azetidinyl)-1-piperazinyl)phenyl)amino)-4-(cyclopropylamino) imidazo[2,1-f][1,2,4] triazine-7-carbonitrile], 0.79 nM.
`N#Cc1cnc2c(NC3CC3)nc(Nc3cc(C(F)F)cc(C4CCN(C5COC5)CC4)c3Cl)nn12` [Example 407, 2-((2-chloro-5-(difluoromethyl)-3-(1-(3-oxetanyl)-4-piperidinyl)phenyl)amino)-4-(cyclopropylamino)imidazo[2,1-f][1,2,4]triazine-7-carbonitrile]: the IC50 came out at 1.76 nM.
As for `COc1ccc(CN2CCN(c3cc(C#N)cc(Nc4nc(NC5CC5)c5ncc(C#N)n5n4)c3Cl)C(=O)C2)cc1` [Example 631, 2-((2-chloro-5-cyano-3-(4-(4-methoxybenzyl)-2-oxopiperazin-1-yl)phenyl)amino)-4-(cyclopropylamino)imidazo[2,1-f][1,2,4]triazine-7-carbonitrile], the figure is 1.1 nM.
To `N#Cc1cc(Nc2nc(NC3CC3)c3ncc(C#N)n3n2)c(Cl)cc1CCCN1CC(O)C1` [Example 569, 2-((2-chloro-5-cyano-4-(3-(3-hydroxyazetidin-1-yl)propyl)phenyl)amino)-4-(cyclopropylamino)imidazo[2,1-f][1,2,4]triazine-7-carbonitrile] belongs 0.7 nM; to `CN1CCN(CCC(F)(F)c2cc(C#N)cc(Nc3nc(NC4CC4)c4ncc(C#N)n4n3)c2Cl)CC1` [Example 738, 2-((2-chloro-5-cyano-3-(1,1-difluoro-3-(4-methylpiperazin-1-yl)propyl)phenyl)amino)-4-(cyclopropylamino)imidazo[2,1-f][1,2,4]triazine-7-carbonitrile], 0.27 nM; to `N#Cc1cc(Nc2nc(NC3CC3)c3ncc(C#N)n3n2)c(Cl)c(N2CCN(C(=O)Cn3ccnc3)CC2)c1` [Example 97, 2-((2-chloro-5-cyano-3-(4-(1H-imidazol-1-ylacetyl)-1-piperazinyl)phenyl)amino)-4-(cyclopropylamino) imidazo[2,1-f][1,2,4] triazine-7-carbonitrile], 0.53 nM.
